Test results taken from paper PMC7038160, “Design, Synthesis, and Evaluation of Acetylcholinesterase and Butyrylcholinesterase Dual-Target Inhibitors against Alzheimer’s Diseases” (Molecules, 2020).
“Also recorded” adds a separate entry of the source.

What was measured:
[1] = biological target: T1, AChE from Electrophorus electricus (eeAChE) (Electrophorus electricus, UniProt O42275); assay: biochemical; format: biochemical; details: for SI (selectivity index = AChE IC50/BChE IC50): eeAChE IC50 / eqBChE IC50; for IC50 / AChE IR (inhibitory rate): eeAChE from electric eel; for IC50: mean ± SEM of triplicate independent experiments; for AChE IR (inhibitory rate): compounds under 100 μM
T1 construct: purchased Sigma-Aldrich
T1 sequence (O42275 24-633): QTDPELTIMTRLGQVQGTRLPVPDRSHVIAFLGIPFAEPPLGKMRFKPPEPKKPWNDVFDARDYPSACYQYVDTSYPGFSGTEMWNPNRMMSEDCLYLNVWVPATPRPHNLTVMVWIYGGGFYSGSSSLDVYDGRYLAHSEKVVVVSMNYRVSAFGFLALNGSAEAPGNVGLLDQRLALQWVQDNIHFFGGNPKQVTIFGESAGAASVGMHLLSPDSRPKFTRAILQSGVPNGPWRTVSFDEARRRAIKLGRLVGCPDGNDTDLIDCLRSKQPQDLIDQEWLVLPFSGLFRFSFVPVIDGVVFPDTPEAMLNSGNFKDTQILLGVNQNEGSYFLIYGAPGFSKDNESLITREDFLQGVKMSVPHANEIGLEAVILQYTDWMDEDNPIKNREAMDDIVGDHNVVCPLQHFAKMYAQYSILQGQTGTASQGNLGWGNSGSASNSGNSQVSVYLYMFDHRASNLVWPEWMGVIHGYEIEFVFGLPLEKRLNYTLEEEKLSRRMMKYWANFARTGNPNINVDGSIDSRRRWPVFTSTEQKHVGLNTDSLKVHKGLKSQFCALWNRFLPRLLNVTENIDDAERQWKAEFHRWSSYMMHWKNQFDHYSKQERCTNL
Description: (§1) According to the method described by Ellman, the data were expressed by IC50 values.
(§2) The inhibitory activity of the target compound against AChE (from Electrophorus electricus (eeAChE), Sigma-Aldrich, Munich, Germany) and horse serum BChE (eqBChE, Sigma-Aldrich, Munich, Germany) were measured by Ellman’s method. In 96-well plates, a mixture of phosphate buffer (0.1 M, pH 8.0, […]), 5,5′-dithiobis-2-nitrobenzoic acid (DTNB, 60 μL), acetylcholinesterase or butyrylcholinesterase (20 μL, 5 IU/mL) and different concentrations of the compounds solution (30 μL) was pre-incubated for 5 min and then substrates (acetylthiocholine iodide or butyrylthiocholine iodide, 20 μL) were added.
(§3) The measurement of each concentration for each compound was detected in triplicate. GraphPad Prism 6.0 (GraphPad Software, Inc., La Jolla, CA, USA) was used for data processing. The inhibition curve was fitted by plotting the logarithm of the concentration of the tested compounds with the percentage of enzyme activity (reference to 100%). The (IC50) value was calculated according to the inhibition curve and the data were shown in the layout of mean ± SEM by GraphPad Prism 6.0.

[2] = biological target: T2, horse serum BChE (eqBChE) (Equus caballus, UniProt P81908); assay: biochemical; format: biochemical; details: eqBChE from horse serum; for IC50: mean ± SEM of triplicate independent experiments; for BChE IR (inhibitory rate): compounds under 100 μM
T2 construct: horse serum BChE (eqBChE, Sigma-Aldrich, Munich, Germany); purchased Sigma-Aldrich; host or cells: horse serum
T2 sequence (P81908 whole entry): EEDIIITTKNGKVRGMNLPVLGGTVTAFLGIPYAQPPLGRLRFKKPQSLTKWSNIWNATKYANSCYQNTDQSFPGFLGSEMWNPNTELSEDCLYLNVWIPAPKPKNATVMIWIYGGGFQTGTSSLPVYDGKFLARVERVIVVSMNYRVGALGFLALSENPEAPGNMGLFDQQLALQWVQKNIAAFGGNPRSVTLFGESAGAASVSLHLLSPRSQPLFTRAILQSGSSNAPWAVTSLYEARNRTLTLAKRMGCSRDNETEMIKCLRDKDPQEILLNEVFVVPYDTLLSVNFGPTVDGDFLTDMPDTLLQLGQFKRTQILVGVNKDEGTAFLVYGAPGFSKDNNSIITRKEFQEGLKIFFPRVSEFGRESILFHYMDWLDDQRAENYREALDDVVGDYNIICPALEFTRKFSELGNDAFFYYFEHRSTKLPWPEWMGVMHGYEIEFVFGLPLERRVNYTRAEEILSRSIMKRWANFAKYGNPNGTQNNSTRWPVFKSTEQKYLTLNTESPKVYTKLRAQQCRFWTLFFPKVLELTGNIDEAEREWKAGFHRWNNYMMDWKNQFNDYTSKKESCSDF
Description: as §1, §2, §3

[3] = biological target: T3, eeAChE (Electrophorus electricus, UniProt O42275); assay: Kinetics of AChE inhibition (Lineweaver–Burk plots); format: biochemical, Electrophorus electricus (electric eel); details: substrate 90-904 μM
T3 construct: purchased Sigma-Aldrich
T3 sequence (O42275 24-633): as the sequence (O42275 24-633) above
Description: (§4) To determine the kinetic types of AChE and BChE inhibition, compounds 8i and 10s were selected for kinetic studies. In each case, the kinetic types of enzyme inhibition were obtained by the modified Ellman’s method and the Lineweaver–Burk secondary plots. […] According to the result of molecular docking study.
(§5) Kinetic studies were performed in the same manner as the determination of ChEs inhibition, with substrate (ATC/BTC) concentrations of 90, 150, 226, 452 and 904 μM. The concentration of compound 8i was set to 0, 0.25, 0.5, 0.75, 1 μM, and the concentration of compound 10s was set to 1, 2.5, 5, 7.5, 10 μM. The enzymatic reaction was extended to 7 min for eeAChE and eqBChE before the determination of the absorption. The Vmax and Km values of Michaelis-Menten kinetics were calculated by nonlinear regression from the substrate-velocity curves using GraphPad Prism 6.0. Linear regression was used to fit the Lineweaver–Burk plot.

[4] = biological target: T4, eqBChE (Equus caballus, UniProt P81908); assay: Kinetics of BChE inhibition (Lineweaver–Burk plots); format: biochemical; details: substrate 90-904 μM
T4 construct: horse serum BChE (eqBChE, Sigma-Aldrich, Munich, Germany); purchased Sigma-Aldrich; host or cells: horse serum
T4 sequence (P81908 whole entry): as the sequence (P81908 whole entry) above
Description: as §4, §5

[5] = tested on: PC12 cells; assay: Cytotoxicity in PC12 cells (MTT assay); format: cell-based; details: 10, 20, 30 and 50 μM, 24 h
Description: We focused on the cytotoxicity of the synthetic compounds. The reason for using PC12 is that our compounds act on the central nervous system, so we need to find out whether the compound has a toxic effect on normal nerve cells. Compounds 6b, 6c, 6d, 10s, 8i, and 10v were selected as representative compounds to assess their potential cytotoxic effects.
Pheochromocytoma-derived cell line (PC12 cells) were grown in Dulbecco’s Modified Eagle Medium (DMEM) supplemented with 10% FBS at 37 °C in a humidified atmosphere containing 5% CO2. To carry out the experiment, cells (6 × 10^3 cells/well) were seeded in 96-well plate in complete medium. […]

[6] = biological target: T4, eqBChE; design: method as in earlier work; details: lead compound from previous virtual screening; cited from earlier work

**Q.** With `Cc1ccc(S(=O)(=O)NCC2CCN(Cc3ccccc3Cl)CC2)cc1` [Compound 10t, N-((1-(2-Chlorobenzyl)piperidin-4-yl)methyl)-4-methylbenzenesulfonamide] as the molecule, how does the “SI (selectivity index = AChE IC50/BChE IC50)” value [1] read?
**A.** 2.74

**Q.** What about the IC50 [1] of the same molecule?
**A.** 5.5 ± 2.56 µM

**Q.** What about the IC50 [2] of the same molecule?
**A.** 2.01 ± 0.7 µM

**Q.** For `COc1ccc(CN2CCC(CNC(=O)c3ccc4[nH]cnc4c3)CC2)cc1` [Compound 11d], which “AChE IR (inhibitory rate)” value [1] is on record?
**A.** 18.81%

**Q.** Which “AChE IR (inhibitory rate)” value [1] does the source give for `COc1ccc(CN2CCC(CNC(=O)c3ccc4[nH]ncc4c3)CC2)cc1` [Compound 11b] here?
**A.** 48.57%

**Q.** For `O=C(NCC1CCN(Cc2ccccc2Cl)CC1)c1ccc2[nH]ccc2c1` [Compound 6b, N-((1-(2-Chlorobenzyl)piperidin-4-yl)methyl)-1H-Indole-5-carboxamide], which “SI (selectivity index = AChE IC50/BChE IC50)” value [1] is on record?
**A.** 1.57

**Q.** What about the IC50 [1] of the same molecule?
**A.** 15 ± 6.17 µM

**Q.** And the IC50 [2]?
**A.** 9.56 ± 4.52 µM

**Q.** What does the source list for `COc1ccc(CN2CCC(CNS(=O)(=O)c3ccc(C)cc3)CC2)cc1` [Compound 10u, N-((1-(4-Methoxybenzyl)piperidin-4-yl)methyl)-4-methylbenzenesulfonamide]?
**A.** AChE IR (inhibitory rate) [1]: 11.61%; BChE IR (inhibitory rate) [2]: 18.31%

**Q.** For `O=C(CC1CCN(CCc2ccccc2Cl)CC1)Nc1ccc2[nH]cnc2c1` [Compound 16d, N-(1H-Benzo[d]imidazol-5-yl)-2-(1-(2-chlorophenethyl)piperidin-4-yl)acetamide], which “AChE IR (inhibitory rate)” value [1] is on record?
**A.** 8.55%

**Q.** What about the “BChE IR (inhibitory rate)” value [2] of the same molecule?
**A.** 38.04%

**Q.** For `O=C(CC1CCN(CCc2ccccc2)CC1)Nc1ccc2[nH]ccc2c1` [Compound 16a, N-(1H-Indol-5-yl)-2-(1-phenethylpiperidin-4-yl)acetamide], which “AChE IR (inhibitory rate)” value [1] is on record?
**A.** 8.61%

**Q.** And the “BChE IR (inhibitory rate)” value [2]?
**A.** 23.49%

**Q.** With `O=C1Cc2cc(C(=O)NCC3CCN(Cc4ccc(C(F)(F)F)cc4)CC3)ccc2N1` [Compound 8l, 2-Oxo-N-((1-(4-(trifluoromethyl)benzyl)piperidin-4-yl)methyl)indoline-5-carboxamide] as the molecule, how does the IC50 [1] read?
**A.** 21.5 ± 9.37 µM

**Q.** What about the “BChE IR (inhibitory rate)” value [2] of the same molecule?
**A.** 35.20%

**Q.** For `O=C1Cc2cc(C(=O)NCC3CCN(Cc4ccccc4)CC3)ccc2N1` [Compound 8i, N-((1-Benzylpiperidin-4-yl)methyl)-2-Oxoindoline-5-carboxamide], which “SI (selectivity index = AChE IC50/BChE IC50)” value [1] is on record?
**A.** 1.39

**Q.** What about the IC50 [1] of the same molecule?
**A.** 0.39 ± 0.04 µM

**Q.** What about the IC50 [2] of the same molecule?
**A.** 0.28 ± 0.1 µM

**Q.** And the “kinetic type of AChE inhibition” value [3]?
**A.** mixed-type inhibition

**Q.** And the “kinetic type of BChE inhibition” value [4]?
**A.** mixed-type inhibition

**Q.** And the “cytotoxicity compared with Tacrine” value [5]?
**A.** lower than that of Tacrine; also recorded: less toxic than Tacrine; also recorded: lowest toxicity

**Q.** Which IC50 [6] does the source give for `Cn1c(=O)n(C)c2cc(S(=O)(=O)NCC3CCN(Cc4ccc(F)cc4)CC3)ccc21` [Compound G801-0274] here?
**A.** 30 nM

**Q.** What does the source list for `O=C(NCC1CCN(Cc2ccccc2)CC1)c1ccc2[nH]ccc2c1` [Compound 6a, N-((1-Benzylpiperidin-4-yl)methyl)-1H-indole-5-carboxamide]?
**A.** SI (selectivity index = AChE IC50/BChE IC50) [1]: 1.66; IC50 [1]: 52.1 ± 30.2 µM; IC50 [2]: 31.4 ± 15.6 µM

**Q.** For `O=C(NCC1CCN(Cc2ccc(C(F)(F)F)cc2)CC1)c1ccc2[nH]nnc2c1` [Compound 6h, N-((1-(4-(Trifluoromethyl)benzyl)piperidin-4-yl)methyl)-1H-benzo[d][1,2,3]triazole-5-carboxamide], which IC50 [1] is on record?
**A.** 40.2 ± 27.6 µM

**Q.** And the “BChE IR (inhibitory rate)” value [2]?
**A.** 30.71%

**Q.** Which results are given for `O=C(NCC1CCN(Cc2ccccc2)CC1)c1ccc2[nH]cnc2c1` [Compound 6d, N-((1-Benzylpiperidin-4-yl)methyl)-1H-benzo[d]imidazole-5-carboxamide]?
**A.** SI (selectivity index = AChE IC50/BChE IC50) [1]: 2.23; IC50 [1]: 4.8 ± 0.68 µM; IC50 [2]: 2.15 ± 0.63 µM; cytotoxicity compared with Tacrine [5]: less toxic than Tacrine

**Q.** Which “AChE IR (inhibitory rate)” value [1] does the source give for `COc1ccc(CN2CCC(CNC(=O)c3ccc4c(c3)CC(=O)N4)CC2)cc1` [Compound 8k, N-((1-(4-Methoxybenzyl)piperidin-4-yl)methyl)-2-Oxoindoline-5-carboxamide] here?
**A.** no

**Q.** And the “BChE IR (inhibitory rate)” value [2]?
**A.** 22.26%

**Q.** With `O=C(NCC1CCN(Cc2ccccc2)CC1)c1ccc2[nH]ncc2c1` [Compound 6c, N-((1-Benzylpiperidin-4-yl)methyl)-1H-indazole-5-carboxamide] as the molecule, how does the “SI (selectivity index = AChE IC50/BChE IC50)” value [1] read?
**A.** 0.25

**Q.** What about the IC50 [1] of the same molecule?
**A.** 9.06 ± 2.57 µM

**Q.** What about the IC50 [2] of the same molecule?
**A.** 36.6 ± 17.5 µM

**Q.** And the “cytotoxicity compared with Tacrine” value [5]?
**A.** less toxic than Tacrine

**Q.** What does the source list for `O=C(CC1CCN(CCc2ccccc2)CC1)Nc1ccc2[nH]cnc2c1` [Compound 16c, N-(1H-Benzo[d]imidazol-5-yl)-2-(1-phenethylpiperidin-4-yl)acetamide]?
**A.** AChE IR (inhibitory rate) [1]: no inhibitory activity and no; BChE IR (inhibitory rate) [2]: 30.59%

**Q.** With `O=C(CC1CCN(CCc2ccccc2Cl)CC1)Nc1ccc2[nH]ccc2c1` [Compound 16b, 2-(1-(2-Chlorophenethyl)piperidin-4-yl)-N-(1H-indol-5-yl)acetamide] as the molecule, how does the “AChE IR (inhibitory rate)” value [1] read?
**A.** 8.95%

**Q.** And the “BChE IR (inhibitory rate)” value [2]?
**A.** 31.21%

**Q.** For `COc1ccc(CN2CCC(CNC(=O)c3ccc4[nH]nnc4c3)CC2)cc1` [Compound 6f, N-((1-(4-Methoxybenzyl)piperidin-4-yl)methyl)-1H-benzo[d][1,2,3]triazole-5-carboxamide], which “AChE IR (inhibitory rate)” value [1] is on record?
**A.** 43.07%

**Q.** And the “BChE IR (inhibitory rate)” value [2]?
**A.** 49.63%

**Q.** For `O=C(NCC1CCN(Cc2ccccc2Cl)CC1)c1ccc2[nH]nnc2c1` [Compound 6g, N-((1-(2-Chlorobenzyl)piperidin-4-yl)methyl)-1H-benzo[d][1,2,3]triazole-5-carboxamide], which “SI (selectivity index = AChE IC50/BChE IC50)” value [1] is on record?
**A.** 0.58

**Q.** And the IC50 [1]?
**A.** 29.2 ± 16.4 µM

**Q.** What about the IC50 [2] of the same molecule?
**A.** 49.9 ± 37.3 µM

**Q.** With `Cc1ccc(S(=O)(=O)NCC2CCN(Cc3ccccc3)CC2)cc1` [Compound 10s, N-((1-Benzylpiperidin-4-yl)methyl)-4-methylbenzenesulfonamide] as the molecule, how does the “SI (selectivity index = AChE IC50/BChE IC50)” value [1] read?
**A.** 1.03

**Q.** And the IC50 [1]?
**A.** 4.24 ± 2.44 µM

**Q.** And the IC50 [2]?
**A.** 4.1 ± 3.74 µM

**Q.** What about the “kinetic type of AChE inhibition” value [3] of the same molecule?
**A.** same inhibition type

**Q.** And the “kinetic type of BChE inhibition” value [4]?
**A.** same inhibition type

**Q.** What about the “cytotoxicity compared with Tacrine” value [5] of the same molecule?
**A.** slightly more toxic than Tacrine

**Q.** Which results are given for `O=C(NCC1CCN(Cc2ccc(C(F)(F)F)cc2)CC1)c1ccc2[nH]cnc2c1` [Compound 6e, N-((1-(4-(Trifluoromethyl)benzyl)piperidin-4-yl)methyl)-1H-benzo[d]imidazole-5-carboxamide]?
**A.** IC50 [1]: 48.5 ± 36.2 µM; BChE IR (inhibitory rate) [2]: 39.88%

**Q.** Which “SI (selectivity index = AChE IC50/BChE IC50)” value [1] does the source give for `Cc1ccc(S(=O)(=O)NCC2CCN(Cc3ccc(C(F)(F)F)cc3)CC2)cc1` [Compound 10v, 4-Methyl-N-((1-(4-(trifluoromethyl)benzyl)piperidin-4-yl)methyl)benzenesulfonamide] here?
**A.** 1.01

**Q.** And the IC50 [2]?
**A.** 7.14 ± 5.27 µM

**Q.** For `O=C1Cc2cc(C(=O)NCC3CCN(Cc4ccccc4Cl)CC3)ccc2N1` [Compound 8j, N-((1-(2-Chlorobenzyl)piperidin-4-yl)methyl)-2-Oxoindoline-5-carboxamide], which “AChE IR (inhibitory rate)” value [1] is on record?
**A.** 14.69%

**Q.** What about the “BChE IR (inhibitory rate)” value [2] of the same molecule?
**A.** 22.87%
